Columns and labels:
[1] = molecular target: recombinant PKC-γ (Homo sapiens, UniProt P05129); test: Activation of protein kinase PKC-γ (enzyme test); type: biochemical; conditions: control with 100 nM TPA set to 100%
Method: PKCγ activators are potentially suitable for activating cc-secretase. These activators are found in enzyme tests in which the recombinantly produced PKC-γ is suboptimally active. The test media were:
In the table, the control with 100 nM phorbol-12-myristate-13-acetate (TPA; stimulator of PKC-γ) was set to 100%.

[2] = Stability of hyperforin salts on storage at room temperature (content by HPLC); type: physicochemical; conditions: for Change in the hyperforin content, difference after 1 week / Change in the hyperforin content, difference after 4 weeks / Change in the hyperforin content, difference after 12 weeks: room temperature, brown-glass bottles, without protective gas; for Change in the hyperforin content, difference after 1 week / Change in the hyperforin content, difference after 4 weeks / Change in the hyperforin content, difference after 12 weeks / Initial value, hyperforin content (% of the stoichiometric content): HPLC; for Initial value, hyperforin content (% of the stoichiometric content): hyperforin (examples 1 to 20) or hyperforin+adhyperforin (examples 21 to 31)
Method: General: Melting points were measured with Elektrothermal® or B-545 (Büchi) apparatus; IR spectra were recorded with an IFS 28 (Bruker) IR-spectrometer on KBr blanks, NMR spectra with an AC 200 or Avance 200 (Bruker) in D4-methanol (200 MHz for ^1H and 50 MHz for ^13C; δ-values in ppm). HPLC determinations were performed using a Dynamax PDA-1 from Rainin, Voburn, Mass., USA. HPLC conditions (isocratic): adsorbant: Eurospher 100-C18, 10 μm. Eluant: Acetonitrile/water/phosphoric acid=85/15/0.3 (vol./vol.). Detection: 273 nm. […] Assay: Content stated in area-% with reference to the reference standard. […] Operating conditions: under red light or in darkened apparatus under protective gas (nitrogen or argon). […] They are calculated as hydrates. Abbreviations: MTBE=Methyl tert.-butyl ether. “98H/I”=n-heptane/isopropanol 98/2 (vol/vol). Mp.=melting point. anh.=anhydrous. Th=theoretical. sv=very strong.
1 This salt is used as the reference standard.

[3] = system: α-secretase; test: Activation of α-secretase in secα1-transfected cells (Seap release); type: cell-based, human; conditions: 60 min incubation, mean of triplicates
Excerpt: As the APP cassette in both constructs begins with amino-acid 7 of the β-amyloid sequence, the recognition sequence for β-secretase in the sec-fusion proteins is absent. Cleavage by γ-secretase has not been described for human APLP-2, with the result that the specificity of the fusion proteins for α-secretase only is achieved by substitution of the trans-membrane domain of APLP-2 for APP. The expression plasmid secα1 was stably transfected into human neuronal cells SY5Y. Activation of α-secretase in these secα1-transfected cells is manifested in an increased release of Seap into the cell medium. The quantity of Seap is determined, and serves as a measure of the α-secretase activity.
Test conditions: 80 000 FL-2a cells/well. V=100 μl. Incubation time: 60 min.
Concentration of the substances: 10 μg/ml.
Mean values±s.d. of triplicates.
The activation of α-secretase by the phorbol ester TPA (100 ng/ml) was measured as the positive control.

Row | SMILES | Increase in the activity of PKC-γ ([1]; substance dose 1 μg/ml) | Increase in the activity of PKC-γ ([1]; substance dose 3 μg/ml) | Increase in the activity of PKC-γ ([1]; substance dose 10 μg/ml) | Change in the hyperforin content, difference after 1 week [2] | Change in the hyperforin content, difference after 4 weeks [2] | Change in the hyperforin content, difference after 12 weeks [2] | Initial value, hyperforin content (% of the stoichiometric content) ([2]; storage time 0) | further results
1 | CC(C)=CCC[C@]1(C)[C@@H](CC=C(C)C)C[C@@]2(CC=C(C)C)C(=O)[C@]1(C(=O)C(C)C)C(=O)C(CC=C(C)C)=C2O.[Na] [Example 1, Hyperforin Sodium Salt] | 9% | 30% | 56% | – | – | – | – | –
2 | C1CCC(NC2CCCCC2)CC1.CC(C)=CCC[C@]1(C)C(CC=C(C)C)C[C@@]2(CC=C(C)C)C(=O)[C@]1(C(=O)C(C)C)C(=O)C(CC=C(C)C)=C2O (some centres unmarked) [Example 2, N,N-Dicyclohexylamine Salt of Hyperforin] | – | – | – | – | – | – | – | Initial value, hyperforin content (titr.) ([2]; storage time 0, perchloric-acid titration): 100%
3 | CC(C)=CCC[C@]1(C)C(CC=C(C)C)C[C@@]2(CC=C(C)C)C(=O)[C@]1(C(=O)C(C)C)C(=O)C(CC=C(C)C)=C2O.COc1cc(CN)cc(OC)c1OC (some centres unmarked) [Example 3, 3,4,5-Trimethoxybenzylamine Salt of Hyperforin] | – | – | – | +1.1% | −1.1% | −5.0% | 87.2% | –
4 | C1CCNC1.CC(C)=CCC[C@]1(C)C(CC=C(C)C)C[C@@]2(CC=C(C)C)C(=O)[C@]1(C(=O)C(C)C)C(=O)C(CC=C(C)C)=C2O (some centres unmarked) [Example 5, Pyrrolidine Salt of Hyperforin] | 3% | 20% | 48% | −0.5% | – | −3.2% | 93.7% | –
5 | CC(C)=CCCC1(C)C(CC=C(C)C)CC2(CC=C(C)C)C(=O)C1(C(=O)C(C)C)C(=O)C(CC=C(C)C)=C2O.NCCCNC1CCCCC1 (centres unmarked) [Example 15] | – | – | – | −2.0% | −2.0% | −9.9% | 90.8% | –
6 | CC(C)=CCC[C@]1(C)C(CC=C(C)C)C[C@@]2(CC=C(C)C)C(=O)[C@]1(C(=O)C(C)C)C(=O)C(CC=C(C)C)=C2O.Nc1ccncc1 (some centres unmarked) [Example 16] | – | – | – | +1.4% | +0.1% | – | 94.6% | –
7 | CC(C)=CCC[C@]1(C)[C@@H](CC=C(C)C)C[C@@]2(CC=C(C)C)C(=O)[C@]1(C(=O)C(C)C)C(=O)C(CC=C(C)C)=C2O [Hyperforin, hyperforin, reference compound] | 6% | 51% | 45% | – | – | – | – | Activity of α-secretase (secreted alkaline phosphatase, Seap) ([3]; 10 μg/ml, 80 000 cells/well): 441 RLU
8 | CCCCCCCCCCCCCC(=O)O[C@@H]1[C@@H](C)[C@@]2(O)[C@@H](C=C(CO)C[C@]3(O)C(=O)C(C)=C[C@@H]23)[C@@H]2C(C)(C)[C@]12OC(C)=O [TPA, phorbol-12-myristate-13-acetate] | – | – | – | – | – | – | – | Activity of α-secretase (secreted alkaline phosphatase, Seap) ([3]; positive control, 100 ng/ml): 386 RLU

Source: patent US6444662B1 (Willmar Schwabe GmbH & Co., priority 1998, dated 2002)
